Among the data in patent publication US8716292B2, “Riminophenazines with 2-(heteroaryl)amino substituents and their anti-microbial activity” (priority 2010, dated 2014) are MIC values, retold here.

≈ marks a conversion by molar mass, not a printed value.

The test system of this assay is Mycobacterium tuberculosis H37Rv strains. The assay can be described thus: In vitro assay for antimicrobial susceptibility (microplate Alamar blue MIC). Type of assay: cell-based. The conditions noted are these: Mycobacterium tuberculosis, H37RV, in vitro, Mycobacterium tuberculosis H37Rv strains; read-out: MIC (μg/mL) against H37Rv. On the technique in general: Resazurin is reduced to fluorescent resorufin, in cell work by metabolically active cells.
For the molecule `CC(C)/N=c1\cc2n(-c3ccccc3)c3ccccc3nc-2cc1Nc1cccnc1` [TBI-054, 5-Phenyl-3-(1-methyethyl)imino-2-(3-pyridyl)amino-3,5-dihydrophenazine], the MIC is 0.03 µg/mL (≈ 0.074 µM). Consider `CN1CCC(/N=c2\cc3n(-c4ccccc4)c4ccccc4nc-3cc2Nc2cccnc2)CC1` [TBI-055, 5-Phenyl-3-(N-methyl-4-piperidyl)imino-2-(3-pyridyl)amino-3,5-dihydrophenazine], for which the MIC amounted to 0.5 µg/mL (≈ 1.09 µM). On to `c1ccc(-n2c3c/c(=N\CCN4CCOCC4)c(Nc4cccnc4)cc-3nc3ccccc32)cc1` [TBI-056, 5-Phenyl-3-(2-morpholinoethyl)imino-2-(3-pyridyl)amino-3,5-dihydrophenazine], for which the MIC amounted to 0.25 µg/mL (≈ 0.525 µM).

Regarding `CC(C)CN1CCC(/N=c2\cc3n(-c4ccccc4)c4ccccc4nc-3cc2Nc2cccnc2)CC1` [TBI-057, 5-phenyl-3-(N-isobutyl-4-piperidyl)imino-2-(3-pyridyl)amino-3,5-dihydrophenazine], the MIC stood at 0.125 µg/mL (≈ 0.249 µM). Under `c1ccc(-n2c3c/c(=N\C4CCOCC4)c(Nc4cccnc4)cc-3nc3ccccc32)cc1` [TBI-058, 5-Phenyl-3-(4-tetrahydropyranyl)imino-2-(3-pyridyl)amino-3,5-dihydrophenazine] stands 0.06 µg/mL (≈ 0.134 µM). For `COC1CCC(/N=c2\cc3n(-c4ccccc4)c4ccccc4nc-3cc2Nc2cccnc2)CC1` (stereo not drawn) [TBI-059, 5-Phenyl-3-(4-methoxycyclohexyl)imino-2-(3-pyridyl)amino-3,5-dihydrophenazine] the value was 0.125 µg/mL (≈ 0.263 µM); for `c1ccc(-n2c3c/c(=N\C4CCN(C5CCCC5)CC4)c(Nc4cccnc4)cc-3nc3ccccc32)cc1` [TBI-060, 5-Phenyl-3-(N-cyclopentyl-4-piperidyl)imino-2-(3-pyridyl)amino-3,5-dihydrophenazine], 1 µg/mL (≈ 1.94 µM). Regarding `COc1ncccc1Nc1cc2nc3ccccc3n(-c3ccccc3)c-2c/c1=N\C(C)C` [TBI-061, 5-Phenyl-3-(1-methylethyl)imino-2-(2-methoxy-3-pyridyl)amino-3,5-dihydrophenazine], the MIC is 0.06 µg/mL (≈ 0.138 µM). Under `COc1ncccc1Nc1cc2nc3ccccc3n(-c3ccccc3)c-2c/c1=N\C1CCN(C)CC1` [TBI-062, 5-Phenyl-3-(N-methyl-4-piperidyl)imino-2-(2-methoxy-3-pyridyl)amino-3,5-dihydrophenazine] stands 0.061 µg/mL (≈ 0.124 µM); under `COc1ncccc1Nc1cc2nc3ccccc3n(-c3ccccc3)c-2c/c1=N\C1CCC(OC)CC1` (stereo not drawn) [TBI-063, 5-Phenyl-3-(4-methoxycyclohexyl)imino-2-(2-methoxy-3-pyridyl)amino-3,5-dihydrophenazine], 0.06 µg/mL (≈ 0.119 µM); under `COc1ncccc1Nc1cc2nc3ccccc3n(-c3ccccc3)c-2c/c1=N\C1CCN(CC(C)C)CC1` [TBI-064, 5-Phenyl-3-(N-isobutyl-4-piperidyl)imino-2-(2-methoxy-3-pyridyl)amino-3,5-dihydrophenazine], 0.057 µg/mL (≈ 0.107 µM). On to `COc1ncccc1Nc1cc2nc3ccccc3n(-c3ccccc3)c-2c/c1=N\CCN1CCOCC1` [TBI-065, 5-Phenyl-3-(2-morpholinoethyl)imino-2-(2-methoxy-3-pyridyl)amino-3,5-dihydrophenazine], for which the MIC was found to be 0.08 µg/mL (≈ 0.158 µM). With `COc1ncccc1Nc1cc2nc3ccccc3n(-c3ccccc3)c-2c/c1=N\C1CCOCC1` [TBI-066, 5-Phenyl-3-(4-tetrahydropyranyl)imino-2-(2-methoxy-3-pyridyl)amino-3,5-dihydrophenazine], the MIC stood at 0.026 µg/mL (≈ 0.0544 µM).

As to `Cc1ccc(Nc2cc3nc4ccccc4n(-c4ccccc4)c-3c/c2=N\C(C)C)cn1` [TBI-067, 5-Phenyl-3-(1-methylethyl)imino-2-(6-methyl-3-pyridyl)amino-3,5-dihydrophenazine], the MIC amounted to 0.048 µg/mL (≈ 0.114 µM).

Take `Cc1ccc(Nc2cc3nc4ccccc4n(-c4ccccc4)c-3c/c2=N\C2CCN(CC(C)C)CC2)cn1` [TBI-068, 5-Phenyl-3-(N-isobutyl-4-piperidyl)imino-2-(6-methyl-3-pyridyl)amino-3,5-dihydrophenazine]: the MIC worked out at 0.156 µg/mL (≈ 0.302 µM). With `Cc1ccc(Nc2cc3nc4ccccc4n(-c4ccccc4)c-3c/c2=N\C2CCN(C)CC2)cn1` [TBI-069, 5-Phenyl-3-(N-methyl-4-piperidyl)imino-2-(6-methyl-3-pyridyl)amino-3,5-dihydrophenazine], the MIC turned out to be 0.219 µg/mL (≈ 0.461 µM). On to `Cc1ccc(Nc2cc3nc4ccccc4n(-c4ccccc4)c-3c/c2=N\C2CCOCC2)cn1` [TBI-070, 5-Phenyl-3-(4-tetrahydropyranyl)imino-2-(6-methyl-3-pyridyl)amino-3,5-dihydrophenazine], for which the MIC was 0.08 µg/mL (≈ 0.173 µM). Under `COC1CCC(/N=c2\cc3n(-c4ccccc4)c4ccccc4nc-3cc2Nc2ccc(C)nc2)CC1` (stereo not drawn) [TBI-072, 5-Phenyl-3-(4-methoxycyclohexyl)imino-2-(6-methyl-pyridyl)amino-3,5-dihydrophenazine] stands 0.091 µg/mL (≈ 0.186 µM); under `Cc1ncccc1Nc1cc2nc3ccccc3n(-c3ccccc3)c-2c/c1=N\C(C)C` [TBI-073, 5-Phenyl-3-(1-methylethyl)imino-2-(2-methyl-3-pyridyl)amino-3,5-dihydrophenazine], 0.058 µg/mL (≈ 0.138 µM); under `Cc1ncccc1Nc1cc2nc3ccccc3n(-c3ccccc3)c-2c/c1=N\C1CCOCC1` [TBI-075, 5-Phenyl-3-(4-tetrahydropyranyl)imino-2-(2-methyl-3-pyridyl)amino-3,5-dihydrophenazine], 0.328 µg/mL (≈ 0.711 µM). Under `COC1CCC(/N=c2\cc3n(-c4ccccc4)c4ccccc4nc-3cc2Nc2cccnc2C)CC1` (stereo not drawn) [TBI-076] stands 0.042 µg/mL (≈ 0.0858 µM); under `Cc1ncccc1Nc1cc2nc3ccccc3n(-c3ccccc3)c-2c/c1=N\C1CCCCC1` [TBI-077, 5-Phenyl-3-cyclohexylimino-2-(2-methyl-3-pyridyl)amino-3,5-dihydrophenazine], 0.016 µg/mL (≈ 0.0348 µM). Under `C/N=c1\cc2n(-c3ccccc3)c3ccccc3nc-2cc1Nc1cccnc1C` [TBI-078] stands 0.019 µg/mL (≈ 0.0485 µM). Take `COc1ncccc1Nc1cc2nc3ccccc3n(-c3ccccc3)c-2c/c1=N\C1CCCCC1` [TBI-079, 5-Phenyl-3-cyclohexylimino-2-(2-methoxy-3-pyridyl)amino-3,5-dihydrophenazine]: the MIC amounted to 0.068 µg/mL (≈ 0.143 µM). Consider `Cc1ccc(Nc2cc3nc4ccccc4n(-c4ccccc4)c-3c/c2=N\C2CCCCC2)cn1` [TBI-080, 5-Phenyl-3-cyclohexylimino-2-(6-methyl-3-pyridyl)amino-3,5-dihydrophenazine], for which the MIC was determined as 0.243 µg/mL (≈ 0.529 µM). On to `Cc1ccc(Nc2cc3nc4ccccc4n(-c4cccc(Cl)c4)c-3c/c2=N\C2CCOCC2)cn1` [TBI-80A, 5-(3-Chlorophenyl)-3-(4-tetrahydropyranyl)imino-2-(6-methyl-3-pyridyl)amino-3,5-dihydrophenazine], for which the MIC was found to be 0.125 µg/mL (≈ 0.252 µM). For the molecule `Cc1ccc(Nc2cc3nc4ccccc4n(-c4cccc(Cl)c4)c-3c/c2=N\C2CCCCC2)cn1` [TBI-80B, 5-(3-Chlorophenyl)-3-cyclohexylimino-2-(6-methyl-3-pyridyl)amino-3,5-dihydrophenazine], the MIC was 0.125 µg/mL (≈ 0.253 µM). Under `COCC(COC)/N=c1\cc2n(-c3cccc(Cl)c3)c3ccccc3nc-2cc1Nc1ccc(C)nc1` [TBI-80C, 5-(3-Chlorophenyl)-3-(1,3-dimethoxyisopropyl)imino-2-(6-methyl-3-pyridyl)amino-3,5-dihydrophenazine] stands 0.327 µg/mL (≈ 0.636 µM); under `Cc1cncc(Nc2cc3nc4ccccc4n(-c4ccccc4)c-3c/c2=N\C(C)C)c1` [TBI-081, 5-Phenyl-3-(1-methylethyl)imino-2-(5-methyl-3-pyridyl)amino-3,5-dihydrophenazine], 0.117 µg/mL (≈ 0.279 µM); under `Cc1cncc(Nc2cc3nc4ccccc4n(-c4ccccc4)c-3c/c2=N\C2CCCCC2)c1` [TBI-082, 5-Phenyl-3-cyclohexylimino-2-(5-methyl-3-pyridyl)amino-3,5-dihydrophenazine], 0.111 µg/mL (≈ 0.242 µM). For the molecule `Cc1cncc(Nc2cc3nc4ccccc4n(-c4ccccc4)c-3c/c2=N\C2CCOCC2)c1` [TBI-083, 5-Phenyl-3-(4-tetrahydropyranyl)imino-2-(5-methyl-3-pyridyl)amino-3,5-dihydrophenazine], the MIC is 0.049 µg/mL (≈ 0.106 µM). Under `COC1CCC(/N=c2\cc3n(-c4ccccc4)c4ccccc4nc-3cc2Nc2cncc(C)c2)CC1` (stereo not drawn) [TBI-084, 5-Phenyl-3-(4-methoxycyclohexyl)imino-2-(5-methyl-3-pyridyl)amino-3,5-dihydrophenazine] stands 0.059 µg/mL (≈ 0.121 µM); under `Cc1cncc(Nc2cc3nc4ccccc4n(-c4ccccc4)c-3c/c2=N\C2CCC(O)CC2)c1` (stereo not drawn) [TBI-085, 5-Phenyl-3-(4-hydroxycyclohexyl)imino-2-(5-methyl-3-pyridyl)amino-3,5-dihydrophenazine], 0.5 µg/mL (≈ 1.05 µM); under `Cc1ccc(Nc2cc3nc4ccccc4n(-c4ccccc4)c-3c/c2=N\C2CCC(O)CC2)cn1` (stereo not drawn) [TBI-086], 0.5 µg/mL (≈ 1.05 µM). Under `COc1ncccc1Nc1cc2nc3ccccc3n(-c3ccccc3)c-2c/c1=N\C1CCC(O)CC1` (stereo not drawn) [TBI-087, 5-Phenyl-3-(4-hydroxycyclohexyl)imino-2-(2-methoxy-3-pyridyl)amino-3,5-dihydrophenazine] stands 0.466 µg/mL (≈ 0.948 µM). Under `CC(C)/N=c1\cc2n(-c3ccc(Br)cc3)c3ccccc3nc-2cc1Nc1cccnc1` [TBI-088, 5-(4-Bromophenyl)-3-(1-methylethyl)imino-2-(3-pyridyl)amino-3,5-dihydrophenazine] stands 0.023 µg/mL (≈ 0.0475 µM); under `Brc1ccc(-n2c3c/c(=N\C4CCCCC4)c(Nc4cccnc4)cc-3nc3ccccc32)cc1` [TBI-089, 5-(4-Bromophenyl)-3-cyclohexylimino-2-(3-pyridyl)amino-3,5-dihydrophenazine], 0.021 µg/mL (≈ 0.04 µM); under `Brc1ccc(-n2c3c/c(=N\C4CC4)c(Nc4cccnc4)cc-3nc3ccccc32)cc1` [TBI-090, 5-(4-Bromophenyl)-3-cyclopropylimino-2-(3-pyridyl)amino-3,5-dihydrophenazine], 0.016 µg/mL (≈ 0.0332 µM). Turning to `Cc1ccc(Nc2cc3nc4ccccc4n(-c4ccc(F)cc4)c-3c/c2=N\C2CCSCC2)cn1` [TBI-90B, 5-(4-Fluorophenyl)-3-(4-tetrahydrothiopyranyl)imino-2-(6-methyl-3-pyridyl)amino-3,5-dihydrophenazine], the MIC turned out to be 0.397 µg/mL (≈ 0.801 µM).
